In US20250049891A1, “NOVEL PEPTIDE DERIVATIVE DERIVED FROM ADIPONECTIN AND USE THEREOF” (SEOUL NATIONAL UNIVERSITY HOSPITAL, priority 2021, published 2025):
≈ marks a conversion by molar mass, not a printed value. Values belong to the compound of their own block, whether it stands above or below them. Square brackets hold non-standard residues; d marks the D form. Peptide text beside a SMILES is read from it. Phe(4-Cl) = N[CH](Cc1ccc(Cl)cc1)C(=O)O; Phe(4-F) = N[CH](Cc1ccc(F)cc1)C(=O)O

Key:
adiponectin receptor 1 = target: T1, adiponectin receptor 1 (Mus musculus, UniProt Q91VH1); assay: AMPK phosphorylation activity after knockdown of adiponectin receptor 1 (siRNA, Western blot); assay type: cell-based; settings: 3T3-L1, adiponectin receptor 1 siRNA, 10 μM, 24 hours
T1 construct: a mouse adipocyte cell line 3T3-L1 was treated with siRNA of an adiponectin receptor 1 to be knocked down; endogenous in cells; host or cells: 3T3-L1 mouse adipocyte cell line
T1 sequence (Q91VH1 1-375): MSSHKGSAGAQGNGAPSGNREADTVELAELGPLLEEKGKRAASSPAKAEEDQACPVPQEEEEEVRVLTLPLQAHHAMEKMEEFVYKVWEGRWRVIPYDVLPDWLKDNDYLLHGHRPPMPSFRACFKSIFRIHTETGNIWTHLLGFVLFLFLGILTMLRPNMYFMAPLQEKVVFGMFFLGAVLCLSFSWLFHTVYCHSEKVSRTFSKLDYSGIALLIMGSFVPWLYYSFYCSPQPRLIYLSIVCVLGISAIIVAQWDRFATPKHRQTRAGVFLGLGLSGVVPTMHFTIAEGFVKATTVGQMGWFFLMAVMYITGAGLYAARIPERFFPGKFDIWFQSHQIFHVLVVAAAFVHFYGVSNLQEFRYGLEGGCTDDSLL
Description: In order to verify whether the peptide derivative of the present disclosure bound to an adiponectin receptor 1, a mouse adipocyte cell line 3T3-L1 was treated with siRNA of an adiponectin receptor 1 to be knocked down, and each of the peptide derivatives of the present disclosure was treated at 10 μM and cultured for 24 hours, and then cells were obtained. Thereafter, the proteins were extracted and it was confirmed by Western blot whether AMPK phosphorylation activity, which had been increased by the peptide derivatives, was lost.

AMPK phosphorylation = AMPK phosphorylation activity in mouse adipocytes (Western blot); assay type: cell-based; settings: 3T3-L1, 10 μM, 24 hours; for AMPK phosphorylation activity (fold change): APN5 = 1.0
Description: There were confirmed effects of the peptide derivatives of the present disclosure on the expression and receptor activity of adiponectin in mouse adipocytes as a main adiponectin production site. A mouse adipocyte cell line 3T3-L1 was treated with each of the peptide derivatives of the present disclosure at a concentration of 10 μM and cultured for 24 hours, and then cells were obtained. Thereafter, the proteins were extracted and the effect on AMPK phosphorylation, which was responsible for the main downstream signaling of adiponectin, was confirmed by Western blot.

physchem = settings: pH 7.4, aqueous buffer, kinetic from dmso stock
Description: (§2) A PRISMA HT solution was diluted in distilled water at a ratio of 1:40, and then used as a test buffer by adjusting the pH to 7.4.
(§3) 10 mL of the prepared test material was diluted in 190 μL of isopropyl alcohol and prepared. In addition, 75 mL of the test solution and 70 mL of isopropyl alcohol were mixed to be used as a blank sample, and 5 mL of the test material diluted in isopropyl alcohol was added to the blank sample. After the diluted sample was mixed, the absorbance was measured and used as an initial test value. […] Thereafter, the precipitate was removed from the sample using a filter plate, 74 mL of the filtered sample was added with 75 mL of isopropyl alcohol, and then the absorbance was measured and used as the sample value.
(§4) The solubility value of the test material was analyzed using a msol Explore (Solubility explorer program) after measuring the absorbance of each sample through a microplate reader. The average and standard deviation of the experimental values (n=3) repeated three times were calculated using the Excel program.

[1] = Metabolic stability test, mouse liver microsomes; assay type: in vitro ADME; settings: pH 7.4, mouse liver microsomes 0.5 mg/ml, NADPH, 37° C., 30 m
Description: (§5) Three types of liver microsomes (Human, Rat, Mouse, 0.5 mg/ml), a 0.1 M phosphate buffer solution (pH 7.4), and the peptide derivative of the present disclosure were added at a concentration of 1 μM and pre-cultured at 37° C. for 5 minutes, and then added with an NADPH Regeneration system solution and cultured at 37° C. for 30 minutes. Thereafter, to terminate the reaction, the mixture was added with an acetonitrile solution containing an internal standard material (chlorpropamide), centrifuged for 5 minutes (14,000 rpm, 4° C.), and then the supernatant was injected into the LC-MS/MS system to analyze a substrate drug, and thus metabolic stability was evaluated.
(§6) The amount of substrate remaining through the reaction was analyzed by LC-MS/MS using Agilent 1290 infinity series pump system (Agilent, USA) and Triple Quad 5500 LC-MS/MS system (Applied Biosystems, USA). The HPLC column was used with a Kinetex C18 column (2.1×100 mm, 1.7 μm particle size; Phenomenex, USA), and the mobile phase was distilled water (A) containing 0.1% formic acid and acetonitrile (B) containing 0.1% formic acid. TurboSpray Ionization was used as an ion source for MS/MS, and a triple quadruple type was used as a mass spectrometer. The produced metabolites were quantified using a multiple reaction monitoring (MRM) quantitative mode, and data analysis was performed using Analyst software (version 1.6.1).

in vitro [2] = settings: human, microsomes, pH 7.4
Description: as §5
(§7) The HPLC column was used with a Kinetex C18 column (2.1×100 mm, 1.7 μm particle size; Phenomenex, USA), and the mobile phase was distilled water (A) containing 0.1% formic acid and acetonitrile (B) containing 0.1% formic acid. TurboSpray Ionization was used as an ion source for MS/MS, and a triple quadruple type was used as a mass spectrometer. The produced metabolites were quantified using a multiple reaction monitoring (MRM) quantitative mode, and data analysis was performed using Analyst software (version 1.6.1).

CYP2C19 = CYP2C19 (Homo sapiens, UniProt P33261); settings: microsomes, 10 µM
Sequence of CYP2C19 (P33261 whole entry): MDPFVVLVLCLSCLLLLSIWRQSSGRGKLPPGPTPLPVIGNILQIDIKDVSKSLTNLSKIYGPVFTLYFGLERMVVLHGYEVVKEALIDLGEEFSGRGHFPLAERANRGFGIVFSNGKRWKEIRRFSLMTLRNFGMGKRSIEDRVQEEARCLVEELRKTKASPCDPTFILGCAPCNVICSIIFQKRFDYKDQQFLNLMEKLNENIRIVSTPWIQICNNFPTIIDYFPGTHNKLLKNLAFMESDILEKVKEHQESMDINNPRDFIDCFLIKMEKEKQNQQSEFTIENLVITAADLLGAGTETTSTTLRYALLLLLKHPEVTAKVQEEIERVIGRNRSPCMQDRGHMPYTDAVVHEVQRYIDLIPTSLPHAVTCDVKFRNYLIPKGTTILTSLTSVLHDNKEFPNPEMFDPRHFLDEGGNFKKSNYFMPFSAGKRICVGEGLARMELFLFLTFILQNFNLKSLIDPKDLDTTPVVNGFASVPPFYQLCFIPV
Description: (§1) Metabolites of each CYP isoenzyme indicator drug produced through the reaction were analyzed by LC-MS/MS using the Shimadzu Nexera XR system and TSQ vantage (Thermo).

CYP3A4 = CYP3A4 (Homo sapiens, UniProt P08684); settings: microsomes, 10 µM
Sequence of CYP3A4 (P08684 whole entry): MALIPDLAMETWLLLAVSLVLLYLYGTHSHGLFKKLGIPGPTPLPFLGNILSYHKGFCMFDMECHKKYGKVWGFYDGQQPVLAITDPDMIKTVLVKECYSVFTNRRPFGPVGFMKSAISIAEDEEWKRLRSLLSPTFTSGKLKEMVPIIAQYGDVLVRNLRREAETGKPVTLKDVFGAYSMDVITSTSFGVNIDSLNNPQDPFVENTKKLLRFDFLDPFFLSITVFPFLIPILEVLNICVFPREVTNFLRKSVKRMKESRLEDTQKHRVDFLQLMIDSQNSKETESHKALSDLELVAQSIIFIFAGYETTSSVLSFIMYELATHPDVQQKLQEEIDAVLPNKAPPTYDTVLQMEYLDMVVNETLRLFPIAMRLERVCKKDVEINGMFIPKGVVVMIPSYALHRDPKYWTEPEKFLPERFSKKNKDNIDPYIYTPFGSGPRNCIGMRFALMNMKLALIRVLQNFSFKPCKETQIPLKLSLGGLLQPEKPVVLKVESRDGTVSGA
Description: as §1

CYP1A2 = target: T2, CYP1A2 (Homo sapiens, UniProt P05177); settings: microsomes, 10 µM
T2 sequence (P05177 1-516): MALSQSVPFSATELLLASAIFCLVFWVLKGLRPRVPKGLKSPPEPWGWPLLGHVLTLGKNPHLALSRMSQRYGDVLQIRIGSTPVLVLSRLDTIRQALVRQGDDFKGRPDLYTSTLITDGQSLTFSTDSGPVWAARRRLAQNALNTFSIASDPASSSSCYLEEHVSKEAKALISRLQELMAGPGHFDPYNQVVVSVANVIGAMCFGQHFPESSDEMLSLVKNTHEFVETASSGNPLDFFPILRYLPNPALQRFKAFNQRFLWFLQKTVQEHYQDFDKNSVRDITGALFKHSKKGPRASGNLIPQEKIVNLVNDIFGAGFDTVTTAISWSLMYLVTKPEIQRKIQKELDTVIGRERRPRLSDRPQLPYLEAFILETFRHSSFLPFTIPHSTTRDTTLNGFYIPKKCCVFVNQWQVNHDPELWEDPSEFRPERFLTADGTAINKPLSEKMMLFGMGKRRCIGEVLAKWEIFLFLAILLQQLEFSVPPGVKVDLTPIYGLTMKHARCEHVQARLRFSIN
Description: as §1

CYP2D6 = CYP2D6 (Homo sapiens, UniProt P10635); settings: microsomes, 10 µM
Sequence of CYP2D6 (P10635 whole entry): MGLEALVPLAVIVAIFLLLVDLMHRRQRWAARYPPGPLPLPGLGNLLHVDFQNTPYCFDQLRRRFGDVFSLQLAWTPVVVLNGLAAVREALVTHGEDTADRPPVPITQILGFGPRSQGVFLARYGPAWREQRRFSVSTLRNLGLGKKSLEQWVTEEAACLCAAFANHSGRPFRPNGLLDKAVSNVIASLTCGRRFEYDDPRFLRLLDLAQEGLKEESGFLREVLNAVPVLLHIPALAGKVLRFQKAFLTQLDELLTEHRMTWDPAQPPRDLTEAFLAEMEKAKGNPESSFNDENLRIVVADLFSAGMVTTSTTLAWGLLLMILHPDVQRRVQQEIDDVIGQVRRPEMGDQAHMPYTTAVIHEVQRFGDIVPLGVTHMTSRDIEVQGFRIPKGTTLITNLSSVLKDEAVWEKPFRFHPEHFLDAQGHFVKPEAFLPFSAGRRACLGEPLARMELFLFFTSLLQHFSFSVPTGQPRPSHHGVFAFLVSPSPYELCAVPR
Description: as §1

CYP2C9 = CYP2C9 (Homo sapiens, UniProt P11712); settings: microsomes, 10 µM
Sequence of CYP2C9 (P11712 whole entry): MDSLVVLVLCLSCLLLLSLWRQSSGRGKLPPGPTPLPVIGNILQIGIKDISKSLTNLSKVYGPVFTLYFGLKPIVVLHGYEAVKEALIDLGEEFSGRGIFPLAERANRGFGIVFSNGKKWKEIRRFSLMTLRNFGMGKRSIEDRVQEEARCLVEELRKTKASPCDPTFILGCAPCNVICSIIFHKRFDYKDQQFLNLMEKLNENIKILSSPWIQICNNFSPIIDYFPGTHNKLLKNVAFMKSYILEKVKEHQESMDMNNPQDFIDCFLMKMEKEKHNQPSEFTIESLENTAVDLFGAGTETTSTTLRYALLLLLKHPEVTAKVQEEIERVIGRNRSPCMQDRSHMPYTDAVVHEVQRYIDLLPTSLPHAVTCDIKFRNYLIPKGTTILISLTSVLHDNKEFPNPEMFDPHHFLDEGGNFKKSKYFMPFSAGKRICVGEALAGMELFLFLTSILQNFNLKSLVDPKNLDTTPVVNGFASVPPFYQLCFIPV
Description: as §1

[3] = Metabolic stability test, rat liver microsomes; assay type: in vitro ADME; settings: pH 7.4, rat liver microsomes 0.5 mg/ml, NADPH, 37° C., 30 m
Description: as §5, §6

in vitro [4] = settings: human, plasma
Description: (§8) The peptide derivative of the present disclosure was added at a concentration of 1 μM to two types of plasma (human, rat), placed in each tube, and then cultured at 37° C. for time of 0, 30, 60, 120, and 240 minutes. The tube containing plasma was taken out every time, added with an acetonitrile solution containing an internal standard material (chlorpropamide), vortexed for 5 minutes, and centrifuged for 5 minutes (14,000 rpm, 4° C.). Thereafter, the plasma stability of the peptide derivative was evaluated by injecting the supernatant into an LC-MS/MS system and analyzing the drug at each time period. At this time, Procaine and Enalapril were used as reference materials for accuracy during a general plasma stability test.
(§9) After the reaction, the amount of drug remaining in each tube was analyzed by LC-MS/MS using Shimadzu Nexera XR system and TSQ vantage (Thermo). The HPLC column was used with a Luna C18 column (2.0×50 mm, 3 μm particle size; Phenomenex, US), and the mobile phase was distilled water (A) containing 0.1% formic acid and acetonitrile (B) containing 0.1% formic acid. Data analysis was performed using Xcalibur (version 1.6.1). In the result analysis, the plasma stability of each peptide derivative was expressed as % remaining for each time period for the sample without culture.

in vitro [5] = settings: rat, plasma
Description: as §8, §9

[6] = Plasma stability test, rat plasma; settings: rat, plasma
Description: as §8, §9

[7] = Plasma stability test, human plasma; settings: human, plasma
Description: as §8, §9

[8] = Metabolic stability test, human liver microsomes; settings: human, microsomes, pH 7.4
Description: as §5, §7

Solubility test = settings: PRISMA HT buffer, pH 7.4, aqueous buffer, kinetic from dmso stock
Description: as §2, §3, §4

Compound: Cc1cc(CC(NC(=O)C(CC(=O)O)NC(=O)CN)C(=O)NC(Cc2ccc(O)cc2)C(=O)NC(Cc2ccccc2)C(N)=O)cc(C)c1O (stereo not shown) [DS-41, NH2-GDY(Dmt)YF-NH2]
- remaining at 0.5 h, 1 μM [1]: 95.2%
- remaining at 0.5 h, 1 μM [6]: > 100%
- remaining at 2 h, 1 μM [6]: 99.6%
- remaining at 0.5 h, 1 μM [7]: < 1%
- remaining at 2 h, 1 μM [7]: < 1%
- remaining at 0.5 h, 1 μM [3]: 75.1%
- remaining at 0.5 h, 1 μM [8]: 95.8%

Compound: CC(C)CC(NC(=O)CN)C(=O)NC(Cc1ccc(Cl)cc1)C(=O)NC(Cc1ccc(O)cc1)C(=O)NC(Cc1ccccc1)C(N)=O (stereo not shown) [DS-52, NH2-GLF(4-C1)YF-NH2] (H-GL[Phe(4-Cl)]YF-NH2; configuration not given here)
- AMPK phosphorylation activity after knockdown of the adiponectin receptor 1 (adiponectin receptor 1): decreased the AMPK phosphorylation activity after knockdown of the adiponectin receptor 1
- AMPK phosphorylation activity (fold change) (AMPK phosphorylation): 1.2 fold change
- AMPK phosphorylation activity compared to APN5 (in words) (AMPK phosphorylation): significant effect of increasing AMPK phosphorylation activity

Compound: CC(C)CC(NC(=O)CN)C(=O)NC(Cc1c[nH]c2ccccc12)C(=O)NC(Cc1ccc(O)cc1)C(=O)NC(Cc1ccccc1)C(N)=O (stereo not shown) [DS-17, NH2-GLWYF-NH2] (H-GLWYF-NH2; configuration not given here)
- AMPK phosphorylation activity after knockdown of the adiponectin receptor 1 (adiponectin receptor 1): decreased the AMPK phosphorylation activity after knockdown of the adiponectin receptor 1
- AMPK phosphorylation activity (fold change) (AMPK phosphorylation): 1.2 fold change
- AMPK phosphorylation activity compared to APN5 (in words) (AMPK phosphorylation): significant effect of increasing AMPK phosphorylation activity

Continued, in another order:

- solubility at 24 h (physchem): 136 µg/mL (≈ 204 µM)
Compound: CC(C)CC(NC(=O)CN)C(=O)NC(Cc1ccc(F)cc1)C(=O)NC(Cc1ccc(O)cc1)C(=O)NC(Cc1ccccc1)C(N)=O (stereo not shown) [DS-51, NH2-GLF(4-F)YF-NH2] (H-GL[Phe(4-F)]YF-NH2; configuration not given here)
- AMPK phosphorylation activity after knockdown of the adiponectin receptor 1 (adiponectin receptor 1): decreased the AMPK phosphorylation activity after knockdown of the adiponectin receptor 1
- AMPK phosphorylation activity (fold change) (AMPK phosphorylation): 1.3 fold change
- AMPK phosphorylation activity compared to APN5 (in words) (AMPK phosphorylation): significant effect of increasing AMPK phosphorylation activity

- remaining at 0.5 h, 1 μM [1]: 95.9%
- remaining at 0.5 h, 1 μM (in vitro [2]): 62.5%
- CYP inhibition (% of control activity) CYP2C19 (CYP2C19): 80.9 % of control activity
- CYP inhibition (% of control activity) CYP3A4 (CYP3A4): 90.9 % of control activity
- CYP inhibition (% of control activity) CYP1A2 (CYP1A2): 83.2 % of control activity
- CYP inhibition (% of control activity) CYP2D6 (CYP2D6): 85.5 % of control activity
- CYP inhibition (% of control activity) CYP2C9 (CYP2C9): 97.3 % of control activity
- remaining at 0.5 h, 1 μM [3]: 66.4%
- remaining at 0.5 h, 1 μM (in vitro [4]): 1.4%
- remaining at 2 h, 1 μM (in vitro [4]): < 1%
- solubility kinetic at 24 h (physchem): 328 µg/mL
- remaining at 0.5 h, 1 μM (in vitro [5]): > 100%
- remaining at 2 h, 1 μM (in vitro [5]): 94.1%
Compound: H-GDYYF-OH [DS-5, NH2-GDYYF-OH]

- solubility kinetic at 24 h (Solubility test): 23.8 µg/mL (≈ 111 µM)
Compound: Nc1ccc(/N=N/c2ccccc2)c(N)n1 [Phenazopyridine]
